We go through one compound from US20230255906A1, “Targeting Serpin B9 in Cancer” (The Brigham and Women`s Hospital, Inc., priority 2020, published 2023).

For one data set, the system named is B16 melanoma cells. The experiment in a line: Caspase-3 activity assay (EnzChek Caspase-3 Assay Kit), caspase-3 induction in tumor cells. Format: cell-based, mouse. Conditions: 200 μM. A digest of the protocol: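 B16 melanoma cells exposed to compounds for 24 h, lysed on ice 30 min, and lysate incubated with Z-DEVD-R110 substrate about 30 min at room temperature. Fluorescence read at ~496/520 nm against untreated-cell and no-enzyme controls; caspase-3 induction serves as surrogate for GrB activity from Sb9 inhibition.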

For another data set, the target named is T1, MBP-Sb9 (Homo sapiens, UniProt P50453).
T1 construct: made in house
The data set is described as follows: Surface plasmon resonance (SPR) binding. Conditions: 25° C., 1:1 Langmuir model. How it is done:
Surface plasmon resonance (SPR) measures change in refractive index on a biosensor surface, as analytic mass accumulates via binding to an attached ligand. This allows derivation of affinity (KD) from measured kinetic rates of association (ka) and dissociation (kd). All assays were run at 25° C. on a BiOptix 404pi. An NTA biosensor chip was used in this study to pre-concentrate 3 μM MBP-Sb9 via an N-terminal His-tag. MBP-Sb9 was covalently immobilized with EDC/NHS in 20 mM HEPES pH 8.0, 150 mM NaCl, 0.05% Tween-20, 5 mM β-ME to 10,000 to 15,000 RUs. MBP was similarly immobilized on a separate channel as a negative control. Compounds were injected as 3-fold serial dilutions in duplicate starting at 200 μM. Injections were done at 50 μL/min for 60 seconds, followed by a 120 second dissociation in 20 mM HEPES, pH 8.0, 150 mM NaCl, 0.05% Tween-20, 5 mM j-ME, 1% DMSO. A series of five DMSO standards between 0.5% and 1.5% were included with each run to correct for bulk refractive index. Sensorgrams were analyzed using Scrubber 2 software with a double reference and fit to a 1:1 Langmuir model to determine the interaction parameters KD, ka, and kd.

A further data set concerns A375 human melanoma. The data set is described as follows: A375 human melanoma tumors in NSG mice. Format: in vivo, mouse. Conditions: 300 μg i.p. bid for 14 days. The protocol: FIGS. 10D-10E. […] Data are expressed as means±SEM. *P<0.05 (Student's t-test). Mean survival time (MST) is increased in mice treated with the compound of Formula (III) as compared to Control group (FIG. 10E).
Mice were anesthetized with isoflurane, and tumor cell lines (B16, A375, and 4T1) were gently injected subcutaneously in the flanks or mammary glands of mice. One hundred thousand cells (1×10^5 cells) were injected per mouse for most of the experiments. However, twenty-five thousand cells (25×10^3 cells) were injected per mouse for the experiments using the compound of Formula (III). Upon 4 hrs post-implantation, 300 μg of the compound of Formula (III) was administered twice a day intraperitoneally for 14 days. Tumor growth was monitored three times per week by digital caliper (Fisherbrand™ Traceable™ Digital Calipers).
To assess if the anti-tumor effects of the compound of Formula (III) were generalizable to human diseases, the efficacy in an NSG humanized mouse model of A375 human melanoma was also tested. […] Thus, the compound of Formula (III) can inhibit Sb9 in melanoma tumor cells and render them susceptible to GrB-mediated apoptosis.

Data set [1] has as its system RENCA mouse kidney tumors. The data set is described as follows: RENCA kidney tumor model in BALB/c mice. Format: in vivo. Conditions: 300 μg i.p. bid for 21 days. An excerpt: FIGS. 6N-6O. […] Data are expressed as means±SEM. *P<0.05, **P<0.01 (Student's t-test). Mean survival time (MST) is increased in mice treated with the compound of Formula (III) as compared to Control group (FIG. 6O).
Furthermore, similar antitumor effects and increased MST using the compound of Formula (III) in two other in vivo tumor models were observed: Renca renal cell carcinoma and LLC1 lung cancer (FIGS. 6M-6Q). Thus, inhibition of Sb9 by the compound of Formula (III) has potent anti-tumor effects in a broad spectrum of tumors, including melanomas as well as breast, lung, and kidney tumors.

Data set [2] in a line: In vivo toxicity (CBC, serum chemistry, H&E). The arrangement: species or system mouse. Conditions: 300 μg i.p. twice a day for 14 days. How it is done:
To further assess the in vivo toxicity of the compound of Formula (III), 300 μg of the compound of Formula (III) was administered twice a day intraperitoneally for 14 days.

In a further data set the test system is GrB. The data set is described as follows: Grantoxilux assay of GrB activity in B16 cells. Format: cell-based, mouse. Conditions: 200 μM, 24 h.
The subject of a further data set is B16-Sb9 KO tumors. The experiment in a line: B16-Sb9 KO tumors in Sb9 KO mice. Particulars: Sb9 KO mice bearing B16-Sb9 KO tumors. Format: in vivo, mouse. How it is done: FIG. 5N. Tumor growth curve indicates no difference in antitumor effect of the compound of Formula (III) on B16-Sb9 KO tumors in Sb9 KO mice, as compared to the control group. Data are expressed as means±SEM.
To evaluate the off-target effects of the compound of Formula (III) to Sb9 proteins, the B16-Sb9 KO melanoma cells were treated with various concentrations of the compound of Formula (III). […] Furthermore, the antitumor effects of the compound of Formula (III) on the Sb9 KO mice bearing B16-Sb9 KO tumors, as compared to control group were not observed (FIG. 5N).

T1 sequence (P50453 whole entry): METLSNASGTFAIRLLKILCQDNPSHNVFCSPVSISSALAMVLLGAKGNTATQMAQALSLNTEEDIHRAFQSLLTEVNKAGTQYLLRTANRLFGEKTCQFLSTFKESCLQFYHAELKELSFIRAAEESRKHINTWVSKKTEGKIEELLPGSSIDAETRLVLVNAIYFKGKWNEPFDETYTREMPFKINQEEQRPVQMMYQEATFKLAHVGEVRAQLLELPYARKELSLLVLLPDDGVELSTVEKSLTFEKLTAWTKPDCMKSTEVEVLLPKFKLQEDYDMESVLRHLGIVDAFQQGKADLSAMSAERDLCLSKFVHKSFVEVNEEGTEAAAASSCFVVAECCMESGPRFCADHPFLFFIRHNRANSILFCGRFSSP

As for `O=C(O)c1ccc2ncoc2c1` [Formula (III), 1,3-benzoxazole-6-carboxylic acid], the “increase in caspase-3 activity compared to 3,4-dihydroxybenzoic acid” value in the data set on B16 melanoma cells (24 h) is reported as ~4 fold. For the same compound, the “GrB-mediated apoptosis (caspase-3 activity)” value with B16 melanoma cells (GrB inhibitor (368050) 10 μM) is “induced GrB-mediated apoptosis”. Besides, on MBP-Sb9, binding was put at a Kd of 273 µM. Also, in the data set on A375 human melanoma, the MST vs control result is listed as “increased MST” and the “reduction of size of human melanoma tumors vs controls” value amounted to 2.1 fold. In data set [1], the “Mean survival time (MST) vs Control” value was “increased”. The “tumor growth vs control” value in data set [1] (male BALB/c mice) is “significantly slower growth”. For the same compound, in data set [2], the “CBC: WBC, HGB, and PLT vs control” value is reported as “no significant difference”; the “serum AST, ALT, CRE, and ALB levels vs control” value is reported as “similar”; the “toxicity to liver, kidney, lung, and heart tissues (H&E staining)” value is reported as “no toxicity”. Further, the “activity of GrB” value in the data set with GrB is reported as “increased activity of GrB”. The “antitumor effects vs control group” value with B16-Sb9 KO tumors is listed as “not observed”.
